# Values of other authors as cited in patent US11324771B2 (priority 2020, dated 2022).
# Where two headings read alike, the source gives them in different places.
# Columns and labels:
# [1] = not given; remark: listed apart in the source
substance,measurement,setting,value
"cobinamide dihydroxide dihydrogen phosphate (ester), mono (inner salt), 3′-ester with 5,6-dimethyl-1-α-D-ribofuranosyl-1H-benzimidazole [Hydroxocobalamin]",solubility in acetone,acetone,practically insoluble
same,solubility in benzene,benzene,practically insoluble
same,solubility in chloroform,chloroform,practically insoluble
same,solubility in dimethyl sulfoxide,dimethyl sulfoxide,freely soluble
same,solubility in diethyl ether / ether,ether,practically insoluble
same,solubility in ethyl acetate,ethyl acetate,practically insoluble
same,solubility in methanol,methanol,freely soluble
same,solubility in water,water,freely soluble
same,solubility in aqueous buffer,[1]; pH 1.2,highly soluble
same,solubility in aqueous buffer,[1]; pH 4.5,highly soluble
same,solubility in aqueous buffer,[1]; pH 6.8,< 400 µg/mL
same,solubility in aqueous buffer,[1]; pH 7.5,< 400 µg/mL
